Molecular target: T1, IRAK4 (Homo sapiens, UniProt Q9NWZ3)
T1 construct: purchased CARNA Bioscience 09-145
T1 sequence (Q9NWZ3 1-460): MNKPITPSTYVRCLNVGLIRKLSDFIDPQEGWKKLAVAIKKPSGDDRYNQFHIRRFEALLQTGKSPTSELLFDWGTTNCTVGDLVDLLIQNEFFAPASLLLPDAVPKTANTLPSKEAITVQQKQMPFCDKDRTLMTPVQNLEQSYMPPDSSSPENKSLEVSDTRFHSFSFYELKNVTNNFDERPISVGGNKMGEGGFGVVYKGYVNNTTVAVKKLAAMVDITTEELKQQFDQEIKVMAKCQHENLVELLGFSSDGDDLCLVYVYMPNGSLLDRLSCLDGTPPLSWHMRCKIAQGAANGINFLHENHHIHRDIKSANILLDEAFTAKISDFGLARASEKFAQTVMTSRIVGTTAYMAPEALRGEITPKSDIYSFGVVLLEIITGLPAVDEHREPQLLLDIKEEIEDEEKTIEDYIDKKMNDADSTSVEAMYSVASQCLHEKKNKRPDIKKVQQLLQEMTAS
Test: IRAK-4 activity inhibition assay (Caliper, Peptide 8, 37 μM ATP)
Assay type: biochemical
Conditions: 3.5 nM IRAK4, 1.5 μM Peptide 8, 37 μM ATP, 28° C. 40 minutes; read-out: IRAK-4 activity inhibition IC50
Experimental: A 1× kinase base buffer was prepared from 50 mM HEPES, pH 7.5 and 0.0015% Brij-35. A stop buffer was prepared from 100 mM HEPES, pH 7.5, 0.015% Brij-35, 0.2% Coating Reagent #3, and 50 mM EDTA.
Test compound was diluted to 50× of the final desired highest inhibitor concentration in reaction by 100% DMSO. 100 ul of this compound dilution was transferred to a well in a 96-well plate.
Test compound was serially diluted by transferring 30 μl to 60 μl of 100% DMSO in the next well and so forth for a total of 10 concentrations. 100 μl of 100% DMSO was added to two empty wells for no compound control and no enzyme control in the same 96-well plate.
A new 96-well plate was marked as intermediate plate. 5 μl of compound serial dilution was transferred from source plate to the corresponding wells of the intermediate plate. 45 μl of 1× kinase base buffer (KB buffer) was added to each well of the intermediate plate. The intermediate plate was placed for 10 min on a shaker.
5 μl of each well was transferred from the 96-well intermediate plate to a 384-well plate in duplicates. […] A2 of the 96-well plate is transferred to A3 and A4 of the 384-well plate, and so on.
IRAK4 and DTT in 1× kinase base buffer was added.
Assay plate already contained 5 μl of compound in 10% DMSO. Added 10 μl of 2.5× enzyme solution to each well of the 384-well assay plate, except no enzyme control wells. […] Added 10 μl of 1× kinase base buffer to no enzyme control wells in the assay plate. Incubated at room temperature for 10 min.
Added 10 μl of 2.5× peptide solution to each well of the 384-well assay plate. […] Incubated at 28° C. for 40 minutes. Added 25 μl of stop buffer to stop reaction. Collected data on Caliper.
Copied conversion % data from Caliper program. Converted conversion % values to percent inhibition values. Percent inhibition=(max−conversion %)/(max−min)*100, where “max” means the conversion % of DMSO control and “min” means the conversion % of no enzyme control.
The compound numbers correspond to the compound numbers in Table 1. […] “NA” stands for “not assayed.”

For `CN(Cc1ncccc1F)[C@H]1CC[C@H](Nc2ncnc3sc4c(c23)CCC4)CC1` [Compound I-104, 1-N-[(3-fluoropyridin-2-yl)methyl]-1-N-methyl-4-N-[7-thia-9,11-diazatricyclo[6.4.0.0^[2,6]]dodeca-1(12),2(6),8,10-tetraen-12-yl]cyclohexane-1,4-diamine], the IC50 was < 5 µM.

`CN(Cc1cnccn1)[C@H]1CC[C@H](Nc2ncnc3sc4c(c23)CCC4)CC1` [Compound I-105] was tested, and the IC50 was < 5 µM.

`CN(CCc1ccccn1)[C@H]1CC[C@H](Nc2ncnc3sc4c(c23)CCC4)CC1` [Compound I-106, 1-N-methyl-1-N-[2-(pyridin-2-yl)ethyl]-4-N-[7-thia-9,11-diazatricyclo[6.4.0.0^[2,6]]dodeca-1(8),2(6),9,11-tetraen-12-yl]cyclohexane-1,4-diamine] was tested, and the IC50 was < 5 µM.

For `CN(CCc1cccc(Cl)c1)[C@H]1CC[C@H](Nc2ncnc3sc4c(c23)CCC4)CC1` [Compound I-107, 1-N-[2-(3-chlorophenyl)ethyl]-1-N-methyl-4-N-[7-thia-9,11-diazatricyclo[6.4.0.0^[2,6]]dodeca-1(8),2(6),9,11-tetraen-12-yl]cyclohexane-1,4-diamine], the IC50 was < 5 µM.

With `CN(CCC(=O)O)[C@H]1CC[C@H](Nc2ncnc3sc4c(c23)CCC4)CC1` [Compound I-108, 3-[methyl[4-([7-thia-9,11-diazatricyclo[6.4.0.0^[2,6]]dodeca-1(8),2(6),9,11-tetraen-12-yl]amino)cyclohexyl]amino]propanoic acid] the IC50 was < 5 µM.

In the case of `CN(CCC(N)=O)[C@H]1CC[C@H](Nc2ncnc3sc4c(c23)CCC4)CC1` [Compound I-109, 3-[methyl[4-([7-thia-9,11-diazatricyclo[6.4.0.0^[2,6]]dodeca-1(8),2(6),9,11-tetraen-12-yl]amino)cyclohexyl]amino]propanamide], the IC50 is reported as < 5 µM.

In the case of `CN(Cc1c[nH]c2ccccc12)[C@H]1CC[C@H](Nc2ncnc3sc4c(c23)CCC4)CC1` [Compound I-110], the IC50 is reported as < 5 µM.

`CN(Cc1ccncc1F)[C@H]1CC[C@H](Nc2ncnc3sc4c(c23)CCC4)CC1` [Compound I-111, 1-N-[(3-fluoropyridin-4-yl)methyl]-1-N-methyl-4-N-[7-thia-9,11-diazatricyclo[6.4.0.0^[2,6]]dodeca-1(12),2(6),8,10-tetraen-12-yl]cyclohexane-1,4-diamine] was tested, and the IC50 was < 5 µM.

In the case of `CN(CCc1ccccc1Cl)[C@H]1CC[C@H](Nc2ncnc3sc4c(c23)CCC4)CC1` [Compound I-112, 1-N-[2-(2-chlorophenyl)ethyl]-1-N-methyl-4-N-[7-thia-9,11-diazatricyclo[6.4.0.0^[2,6]]dodeca-1(12),2(6),8,10-tetraen-12-yl]cyclohexane-1,4-diamine], the IC50 is reported as < 5 µM.

For `CNC1CCCC(Oc2ncnc3sc4c(c23)CCC4)CC1` (centres unmarked) [Compound I-113, N-methyl-4-[7-thia-9,11-diazatricyclo[6.4.0.0^[2,6]]dodeca-1(12),2(6),8,10-tetraen-12-yloxy]cycloheptan-1-amine], the IC50 was 5 to 20 µM.

In the case of `CN(CC(=O)Nc1ccccc1)[C@H]1CC[C@H](Nc2ncnc3sc4c(c23)CCC4)CC1` [Compound I-114, 2-[methyl[4-([7-thia-9,11-diazatricyclo[6.4.0.0^[2,6]]dodeca-1(8),2(6),9,11-tetraen-12-yl]amino)cyclohexyl]amino]-N-phenylacetamide], the IC50 is reported as < 5 µM.

For `c1ccc(CCN[C@H]2CC[C@H](Nc3ncnc4sc5c(c34)CCC5)CC2)cc1` [Compound I-115, 1-N-(2-phenylethyl)-4-N-[7-thia-9,11-diazatricyclo[6.4.0.0^[2,6]]dodeca-1(12),2(6),8,10-tetraen-12-yl]cyclohexane-1,4-diamine], the IC50 was < 5 µM.

With `CN(CCCc1ccccc1)[C@H]1CC[C@H](Oc2ncnc3sc4c(c23)CCC4)CC1` [Compound I-116, N-methyl-N-(3-phenylpropyl)-4-[7-thia-9,11-diazatricyclo[6.4.0.0^[2,6]]dodeca-1(8),2(6),9,11-tetraen-12-yloxy]cyclohexan-1-amine] the IC50 was < 5 µM.

For `CCN(Cc1ccccc1)[C@H]1CC[C@H](Oc2ncnc3sc4c(c23)CCC4)CC1` [Compound I-117, (1r,4r)-N-benzyl-4-((6,7-dihydro-5H-cyclopenta[4,5]thieno[2,3-d]pyrimidin-4-yl)oxy)-N-ethylcyclohexanamine], the IC50 was < 5 µM.

With `CN(CCCc1ccccc1)[C@H]1CC[C@H](Nc2ncnc3sc4c(c23)CCC4)CC1` [Compound I-118] the IC50 was < 5 µM.

For `c1ccc(CCCN[C@H]2CC[C@H](Nc3ncnc4sc5c(c34)CCC5)CC2)cc1` [Compound I-119, (1r,4r)-N1-(6,7-dihydro-5H-cyclopenta[4,5]thieno[2,3-d]pyrimidin-4-yl)-N4-(3-phenylpropyl)cyclohexane-1,4-diamine], the IC50 was < 5 µM.

`CCN(Cc1ccccc1)[C@H]1CC[C@H](Nc2ncnc3sc4c(c23)CCC4)CC1` [Compound I-120, 1-N-benzyl-1-N-ethyl-4-N-[7-thia-9,11-diazatricyclo[6.4.0.0[2,6]]dodeca-1(8),2(6),9,11-tetraen-12-yl]cyclohexane-1,4-diamine] was tested, and the IC50 was < 5 µM.

In the case of `CN(CCc1ccccc1)[C@H]1CC[C@H](Oc2ncnc3sc4c(c23)CCC4)CC1` [Compound I-121, N-methyl-N-(2-phenylethyl)-4-[7-thia-9,11-diazatricyclo[6.4.0.0[2,6]]dodeca-1(8),2(6),9,11-tetraen-12-yloxy]cyclohexan-1-amine], the IC50 is reported as < 5 µM.

For `CN(CC(N)=O)[C@H]1CC[C@H](Nc2ncnc3sc4c(c23)CCC4)CC1` [Compound I-122, 2-(((1r,4r)-4-((6,7-dihydro-5H-cyclopenta[4,5]thieno[2,3-d]pyrimidin-4-yl)amino)cyclohexyl)(methyl)amino)acetamide], the IC50 was < 5 µM.

In the case of `CN(CC(=O)NCc1ccccc1)[C@H]1CC[C@H](Nc2ncnc3sc4c(c23)CCC4)CC1` [Compound I-123, N-benzyl-2-(((1r,4r)-4-((6,7-dihydro-5H-cyclopenta[4,5]thieno[2,3-d]pyrimidin-4-yl)amino)cyclohexyl)(methyl)amino)acetamide], the IC50 is reported as < 5 µM.

In the case of `CC(C)NC(=O)CN(C)[C@H]1CC[C@H](Nc2ncnc3sc4c(c23)CCC4)CC1` [Compound I-125, 2-(((1r,4r)-4-((6,7-dihydro-5H-cyclopenta[4,5]thieno[2,3-d]pyrimidin-4-yl)amino)cyclohexyl)(methyl)amino)-N-isopropylacetamide], the IC50 is reported as < 5 µM.

`CN(CC(=O)Nc1cccnc1)[C@H]1CC[C@H](Nc2ncnc3sc4c(c23)CCC4)CC1` [Compound I-126, 2-(((1r,4r)-4-((6,7-dihydro-5H-cyclopenta[4,5]thieno[2,3-d]pyrimidin-4-yl)amino)cyclohexyl)(methyl)amino)-N-(pyridin-3-yl)acetamide] was tested, and the IC50 was < 5 µM.

In the case of `CC(C)CN(C)[C@H]1CC[C@H](Nc2ncnc3sc4c(c23)CCC4)CC1` [Compound I-127, 1-N-methyl-1-N-(2-methylpropyl)-4-N-[7-thia-9,11-diazatricyclo[6.4.0.0[2,6]]dodeca-1(8),2(6),9,11-tetraen-12-yl]cyclohexane-1,4-diamine], the IC50 is reported as < 5 µM.

`C[N+](C)([O-])[C@H]1CC[C@H](Nc2ncnc3sc4c(c23)CCC4)CC1` [Compound I-128, N-[4-(dimethylnitroso)cyclohexyl]-7-thia-9,11-diazatricyclo[6.4.0.0[2,6]]dodeca-1(8),2(6),9,11-tetraen-12-amine] showed an IC50 of 20 to 50 µM.

`CN(CC(=O)N1CCCCC1)[C@H]1CC[C@H](Nc2ncnc3sc4c(c23)CCC4)CC1` [Compound I-129, 2-[methyl[4-([7-thia-9,11-diazatricyclo[6.4.0.0[2,6]]dodeca-1(12),2(6),8,10-tetraen-12-yl]amino)cyclohexyl]amino]-1-(piperidin-1-yl)ethan-1-one] was tested, and the IC50 was < 5 µM.

For `CN(CC(=O)N1CCOCC1)[C@H]1CC[C@H](Nc2ncnc3sc4c(c23)CCC4)CC1` [Compound I-130, 2-[methyl[4-([7-thia-9,11-diazatricyclo[6.4.0.0[2,6]]dodeca-1(12),2(6),8,10-tetraen-12-yl]amino)cyclohexyl]amino]-1-(morpholin-4-yl)ethan-1-one], the IC50 was < 5 µM.
